# Patent US20220265629A1, “TREATMENT OF SYSTOLIC DYSFUNCTION AND HEART FAILURE WITH REDUCED EJECTION FRACTION WITH THE COMPOUND (R)-4-(1-((3-(DIFLUOROMETHYL)-1-METHYL-1H-PYRAZOL-4-YL)SULFONYL)-1-FLUOROETHYL)-N-(ISOXAZOL-3-YL)PIPERIDINE-1-CARBOXAMIDE” (MyoKardia, Inc., priority 2019, published 2022)
# Read-outs that look alike come from different tables or passages of the source.
# Columns and labels:
# [1] = Physicochemical and biopharmaceutical properties of the drug substance (PBPK model input); conditions: for blood plasma ratio: blood and plasma
# Source text: A PBPK mechanistic absorption model was developed by integrating (1) physicochemical and biopharmaceutical properties obtained from in vitro experimental measurements or in silico estimates based on chemical structure using ADMET Predictor (version 7.2) in GastroPlus (Version 9.6); (2) formulation properties of the drug product such as drug substance particle size distribution, formulation type, and rate of release or dissolution; (3) compartmental model kinetic parameters such as systemic clearance, volume of distribution, and inter-compartmental rate constants; and (4) gut physiology parameters such as gastro-intestinal (GI) transit time, pH, absorptive surface area, compartment dimensions and fluid content. The preexisting physiological parameters in GastroPlus (Version 9.6) for American healthy volunteers and beagle dogs under fasted conditions were used without modification.
# [2] = Unbound (free) fraction in plasma; format: in vitro ADME
# [3] = HFrEF study Part 1 (SAD Cohorts 1 and 2): plasma pharmacokinetics; format: in vivo, human; conditions: for Cmax / Tmax / AUC(0-t) / AUC(0-inf) / half-life: human, plasma, oral; for AUC(0-t): read-out: AUC0-24; for Plasma concentration, Mean / Plasma concentration, Median: pooled SAD Cohorts 1 and 2
# Source text: Part 1 was a randomized, crossover, DB, placebo-controlled, two-cohort, sequential ascending (oral) single-close study in ambulatory patients with heart failure. All patients received placebo and 2 or 3 active doses of Compound I. Each patient underwent sequential, single-close treatment events separated by no fewer than 5 days and no more than 14 days. Patients in Cohort 1 may also return for a fourth dosing period (open label) after the SRC reviews available data and recommends the close. Patients enrolled prior to the implementation of Amendment 1 may be offered the opportunity to return for the open-label period. Patients in Cohort 2 participated in 2 to 4 dosing periods, based on SRC decision. Patients were randomized to one of the different dosing sequences outlined in FIG. 5A. Multiple patients could be closed at the same time or during the same week depending on administrative issues, i.e., capacity and scheduling.
# For each dosing period, patients were admitted to the clinical site on Day −1. Patients were assessed for absence of exclusion criteria (e.g., new lab abnormalities and/or conditions that indicate the patient is clinically unstable). They received Compound I or placebo in the morning of Day 1 followed by serial PK and PD assessments, as well as serial safety assessments. Patients were discharged on Day 3 (i.e., ˜48 hours following Day 1 dosing). An additional outpatient plasma PK sample was taken on the morning of Day 4 at 72 hours postclose.
# Study medication consisted of Compound I 5 mg tablets, 25 mg tablets, 100 mg tablets, or matching placebo tablets. In Part 1 (SAD), Compound I or placebo was administered after an overnight fast (at least 6 hours), while in Part 2 (MAD), Compound I was administered after a 2 hour fast (Cohort A) or with food (Cohorts B, C, and D). The close was ingested with a minimum of 240 mL of water, but more water was ingested as needed. The entire close was administered over a period of up to 15 minutes. The time of close used to determine future assessments was the time the last tablet was taken. In the cohorts for Part 2 (MAD), a BID regimen was used.
# In Part 1 (SAD), patients fasted overnight (approximately 6 hours) through 4 hours postclose. With the exception of the water consumed with the close, water could be ingested until approximately 1 hour prior to dosing and approximately 1 hour after dosing. If closes were split, subjects fasted 6 hours prior to the first half-close. A light, low-fat snack could be consumed 2 hours after the first half-close and a fast continued through 2 hours after the second half-close.
# Eight patients with stable heart failure were enrolled and randomized to receive Compound I or placebo at a dose of 175, 350, 525, 450 (split close), or 550 mg (split close) in a crossover study design with four periods (A-D). All patients had heart failure with a nonischemic etiology and a mean Baseline ejection fraction of 43%. All eight subjects received placebo, 175 mg, and 350 mg (in random sequence) during Periods A to C. Six subjects elected to continue into a fourth open-label Period D, and closes received included: 350 mg (n=1), 525 mg (n=2), 450 mg (divided into 2 aliquots; n=1) and 550 mg (divided into 2 aliquots, n=2). The single doses were administered to patients under fasted conditions. The split closes were given four hours apart with patients fasting six hours prior to the first half-close and 2 hours after the second half-close, with a light snack allowed 2 hours after the first half-close. Subsequently, patients underwent extended observation, followed by a washout period. This process was repeated until each patient had received at least three closes (Compound I or placebo).
# Four subjects with stable heart failure were enrolled and randomized to receive Compound I or placebo at a dose of 400 mg (split close) or 500 mg (split close) over three periods (A-C). […]
# [4] = crystalline free-base drug substance
# [5] = 175 mg, SAD Cohort 1, 175 mg (n = 8)
# [6] = 350 mg, SAD Cohort 1, 350 mg (n = 8)
# [7] = 350 mg, SAD Cohort 1, 4th dose 350 mg (n = 1)
# [8] = 400 mg, SAD Cohort 2, 400 mg split dose (n = 4)
# [9] = 450 mg, SAD Cohort 1, Split dose 450 mg (n = 1)
# [10] = 500 mg, SAD Cohort 2, 500 mg split dose (n = 4)
# [11] = 525 mg, SAD Cohort 1, 525 mg (n = 2)
# [12] = 550 mg, SAD Cohort 1, Split dose 550 mg (n = 2)
smiles,measurement,setting,value
"Cn1cc(S(=O)(=O)[C@@](C)(F)C2CCN(C(=O)Nc3ccon3)CC2)c(C(F)F)n1 [Compound I, (R)-4-(1-((3-(difluoromethyl)-1-methyl-1H-pyrazol-4-yl)sulfonyl)-1-fluoroethyl)-N-(isoxazol-3-yl)piperidine-1-carboxamide]",Biopharmaceutics Classification System (BCS) class,[1],Class II
same,solubility,"[1]; aqueous buffer, 37° C., across pH 1.2-9.6",~43 µg/mL
same,blood plasma ratio,"[1]; Dog, in vitro measured, read-out: B:P (Dog), ratio of concentration of drug in blood to plasma",0.8
same,blood plasma ratio,"[1]; Human, in vitro measured, read-out: B:P (Human), ratio of concentration of drug in blood to plasma",0.85
same,hygroscopicity,[1]; [4],nonhygroscopic
same,solubility in aqueous media,[1]; [4],practically insoluble
same,Papp,"[1]; human, Caco-2, in vitro measured, read-out: Permeability, Caco-2",17.9 ×10⁻⁶ cm/s
same,logD,"[1]; pH 7.4, Measured",3.07
same,fraction unbound,"[2]; dog, Dog plasma, read-out: fup (Dog), unbound fraction in plasma",0.416
same,fraction unbound,"[2]; human, Human plasma, 0.1 to 10 μM, read-out: fup (Human), unbound fraction in plasma",0.144 to 0.164
same,fraction unbound,"[2]; human, read-out: fu, free fraction of Compound I in plasma",0.14 to 0.18
same,AUC0-∞,"[3]; SAD Cohort 1, 175 mg (n = 8)","53,800 h × ng/mL"
same,AUC0-∞,"[3]; SAD Cohort 1, 350 mg (n = 8)","103,000 h × ng/mL"
same,AUC0-∞,"[3]; SAD Cohort 1, 525 mg (n = 2)","127,000 h × ng/mL"
same,Cmax,"[3]; 175 mg, 175 mg single dose, read-out: Cmax, mean (SD)",1510 ng/mL
same,Tmax,[3]; [5],4.93 h
same,AUC(0-t),[3]; [5],27 µg·h/mL
same,Cmax,"[3]; 175 mg, SAD Cohort 1, 175 mg (n = 8), read-out: Cmax",1510 ng/mL
same,Cmax,"[3]; 350 mg, 350 mg single dose, read-out: Cmax, mean (SD)",2760 ng/mL
same,Tmax,[3]; [6],6.15 h
same,AUC(0-t),[3]; [6],50.5 µg·h/mL
same,Cmax,"[3]; 350 mg, SAD Cohort 1, 350 mg (n = 8), read-out: Cmax",2760 ng/mL
same,Tmax,[3]; [7],4.05 h
same,AUC(0-t),[3]; [7],70.1 µg·h/mL
same,Cmax,"[3]; 350 mg, SAD Cohort 1, 4th dose 350 mg (n = 1), read-out: Cmax",3590 ng/mL
same,Tmax,[3]; [8],9 h
same,AUC(0-t),[3]; [8],162 µg·h/mL
same,Cmax,"[3]; 400 mg, SAD Cohort 2, 400 mg split dose (n = 4), read-out: Cmax",5460 ng/mL
same,Tmax,[3]; [9],12 h
same,AUC(0-t),[3]; [9],79.2 µg·h/mL
same,Cmax,"[3]; 450 mg, SAD Cohort 1, Split dose 450 mg (n = 1), read-out: Cmax",4420 ng/mL
same,Tmax,[3]; [10],8.5 h
same,AUC(0-t),[3]; [10],191 µg·h/mL
same,Cmax,"[3]; 500 mg, SAD Cohort 2, 500 mg split dose (n = 4), read-out: Cmax",5880 ng/mL
same,Cmax,"[3]; 525 mg, 525 mg single dose, read-out: Cmax, mean (SD)",2720 ng/mL
same,Tmax,[3]; [11],5.74 h
same,AUC(0-t),[3]; [11],54 µg·h/mL
same,Cmax,"[3]; 525 mg, SAD Cohort 1, 525 mg (n = 2), read-out: Cmax",2720 ng/mL
same,Tmax,[3]; [12],8.93 h
same,AUC(0-t),[3]; [12],97.9 µg·h/mL
same,Cmax,"[3]; 550 mg, SAD Cohort 1, Split dose 550 mg (n = 2), read-out: Cmax",5280 ng/mL
same,AUC(0-inf),"[3]; 175 mg single dose, read-out: AUC0-∞, mean (SD)",53.8 µg·h/mL
same,AUC(0-inf),"[3]; 350 mg single dose, read-out: AUC0-∞, mean (SD)",103 µg·h/mL
same,AUC(0-inf),"[3]; 525 mg single dose, read-out: AUC0-∞, mean (SD)",127 µg·h/mL
same,half-life,"[3]; HFrEF patients (Cohort 1), read-out: half-life",20 to 25 h
same,half-life,"[3]; SAD Cohort 1, 175 mg (n = 8), read-out: t½ (converted)",22 h
same,half-life,"[3]; SAD Cohort 1, 350 mg (n = 8), read-out: t½ (converted)",21 h
same,half-life,"[3]; SAD Cohort 1, 525 mg (n = 2), read-out: t½ (converted)",24.7 h
same,AUC(0-inf),"[3]; SAD Cohort 1, Split dose 450 mg (n = 1), read-out: AUC0-∞",235 µg·h/mL
same,half-life,"[3]; SAD Cohort 1, Split dose 450 mg (n = 1), read-out: t½ (converted)",30.6 h
same,AUC(0-inf),"[3]; SAD Cohort 1, Split dose 550 mg (n = 2), read-out: AUC0-∞",213 µg·h/mL
same,half-life,"[3]; SAD Cohort 1, Split dose 550 mg (n = 2), read-out: t½ (converted)",21.5 h
same,AUC(0-inf),"[3]; SAD Cohort 2, 400 mg split dose (n = 4), read-out: AUC0-∞",192 µg·h/mL
same,half-life,"[3]; SAD Cohort 2, 400 mg split dose (n = 4), read-out: t½ (converted)",24.1 h
same,AUC(0-inf),"[3]; SAD Cohort 2, 500 mg split dose (n = 4), read-out: AUC0-∞",231 µg·h/mL
same,half-life,"[3]; SAD Cohort 2, 500 mg split dose (n = 4), read-out: t½ (converted)",24 h
same,"Plasma concentration, Mean",[3]; group <2000 ng/mL,1390 ng/mL
same,"Plasma concentration, Median",[3]; group <2000 ng/mL,1307 ng/mL
same,"Plasma concentration, Mean",[3]; group ≥2000 ng/mL,3823 ng/mL
same,"Plasma concentration, Median",[3]; group ≥2000 ng/mL,3795 ng/mL
